Reference: patent publication US8183239B2, “Substituted piperazines and piperidines as modulators of the neuropeptide Y2 receptor” (Janssen Pharmaceutica NV, priority 2005, dated 2012)
pIC50: −log10 of the molar value.

target: T1, Y2 receptors (Homo sapiens, UniProt P49146); assay: Radioligand binding assay ([125I]PYY, KAN-Ts cell membranes); conditions: Table 1, [125I]PYY 80 pM, average of results, read-out: IC50
T1 construct: endogenous in cells; host or cells: KAN-Ts cells (membranes)
T1 sequence (P49146 1-381): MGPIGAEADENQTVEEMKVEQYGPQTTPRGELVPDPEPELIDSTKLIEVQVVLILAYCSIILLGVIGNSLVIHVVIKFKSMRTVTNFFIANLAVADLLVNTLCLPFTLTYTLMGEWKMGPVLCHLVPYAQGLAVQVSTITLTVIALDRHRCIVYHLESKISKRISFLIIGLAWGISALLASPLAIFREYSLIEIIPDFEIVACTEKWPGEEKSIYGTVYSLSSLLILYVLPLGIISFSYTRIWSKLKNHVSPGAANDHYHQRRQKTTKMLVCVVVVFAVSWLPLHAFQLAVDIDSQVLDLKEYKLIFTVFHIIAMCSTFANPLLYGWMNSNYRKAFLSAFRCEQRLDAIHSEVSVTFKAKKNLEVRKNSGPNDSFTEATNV
Outline: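 Membranes from KAN-Ts cells endogenously expressing Y2 incubated 1 h at rt with 80 pM [^125I]PYY ± test compound in HEPES buffer with NaCl, Ca^2+ and Mg^2+. Bound radioactivity collected by filtration; specific binding defined with […]. IC50 from sigmoidal fit, averaged over 3-8 duplicate experiments.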

SMILES	pIC50
COC(=O)C(c1ccccc1)N1CCN(c2ccc(NC(=O)c3cccnc3)cc2)CC1 (centres unmarked) [Example 98, Phenyl-(4-{4-[(pyridine-3-carbonyl)-amino]-phenyl}-piperazin-1-yl)-acetic acid methyl ester]	4.92
COC(=O)C(c1ccccc1)N1CCN(c2ccc(NC(=O)c3ccccc3I)cc2F)CC1 (centres unmarked) [Example 99, {4-[2-Fluoro-4-(2-iodo-benzoylamino)-phenyl]-piperazin-1-yl}-phenyl-acetic acid methyl ester]	6.60
CCNC(=O)C(c1ccccc1)N1CCN(c2ccc(NC(=O)c3cccnc3Br)cc2F)CC1 (centres unmarked) [Example 100, 2-Bromo-N-{4-[4-(ethylcarbamoyl-phenyl-methyl)-piperazin-1-yl]-3-fluoro-phenyl}-nicotinamide]	6.05
COC(=O)C(c1ccccc1)N1CCN(c2ccc(NC(=O)c3ccco3)cc2)CC1 (centres unmarked) [Example 101, (4-{4-[(Furan-2-carbonyl)-amino]-phenyl}-piperazin-1-yl)-phenyl-acetic acid methyl ester]	4.70
COC(=O)C(c1ccccc1)N1CCN(c2ccc(NC(=O)c3ccoc3)cc2)CC1 (centres unmarked) [Example 102, (4-{4-[(Furan-3-carbonyl)-amino]-phenyl}-piperazin-1-yl)-phenyl-acetic acid methyl ester]	4.70
COC(=O)C(c1ccccc1)N1CCN(c2ccc(NC(=O)c3ccsc3)cc2)CC1 (centres unmarked) [Example 103, Phenyl-(4-{4-[(thiophene-3-carbonyl)-amino]-phenyl}-piperazin-1-yl)-acetic acid methyl ester]	5.60
COC(=O)C(c1ccccc1)N1CCN(c2ccc(NC(=O)c3ccc[nH]3)cc2)CC1 (centres unmarked) [Example 104, Phenyl-(4-{4-[(1H-pyrrole-2-carbonyl)-amino]-phenyl}-piperazin-1-yl)-acetic acid methyl ester]	5.15
COC(=O)C(c1ccccc1)N1CCN(c2ccc(NC(=O)c3ccccn3)cc2)CC1 (centres unmarked) [Example 106, Phenyl-(4-{4-[(pyridine-2-carbonyl)-amino]-phenyl}-piperazin-1-yl)-acetic acid methyl ester]	4.92
COC(=O)C(c1ccccc1)N1CCN(c2ccc(NC(=O)c3cncnc3)cc2)CC1 (centres unmarked) [Example 108, Phenyl-(4-{4-[(pyrimidine-5-carbonyl)-amino]-phenyl}-piperazin-1-yl)-acetic acid methyl ester]	4.59
COC(=O)C(c1ccccc1)N1CCN(c2ccc(NC(=O)CC(C)C)cc2)CC1 (centres unmarked) [Example 109, {4-[4-(3-Methyl-butyrylamino)-phenyl]-piperazin-1-yl}-phenyl-acetic acid methyl ester]	5.21
COC(=O)C(c1ccccc1)N1CCN(c2ccc(NC(=O)c3ccccc3Br)cc2)CC1 (centres unmarked) [Example 110, {4-[4-(2-Bromo-benzoylamino)-phenyl]-piperazin-1-yl}-phenyl-acetic acid methyl ester]	5.62
CCN(CC)C(=O)C(c1ccccc1)N1CCN(c2ccc(NC(=O)c3ccccc3Br)cc2F)CC1 (centres unmarked) [Example 111, 2-Bromo-N-{4-[4-(diethylcarbamoyl-phenyl-methyl)-piperazin-1-yl]-3-fluoro-phenyl}-benzamide]	6.47
CCC(CC)C(=O)N(C)c1ccc(N2CCN(C(C(=O)N(CC)CC)c3ccccc3)CC2)c(F)c1 (centres unmarked) [Example 112, N-{4-[4-(Diethylcarbamoyl-phenyl-methyl)-piperazin-1-yl]-3-fluoro-phenyl}-2-ethyl-N-methyl-butyramide]	6.35
CCNC(=O)C(c1ccccc1)N1CCN(c2ccc(C(=O)NC(CC)CC)cc2F)CC1 (centres unmarked) [Example 113, 4-[4-(Ethylcarbamoyl-phenyl-methyl)-piperazin-1-yl]-N-(1-ethyl-propyl)-3-fluoro-benzamide]	5.24
COC(=O)C(c1ccccc1)N1CCN(c2ccc(C(=O)Nc3ccccc3)cc2)CC1 (centres unmarked) [Example 114, Phenyl-[4-(4-phenylcarbamoyl-phenyl)-piperazin-1-yl]-acetic acid methyl ester]	5.00
CCC(CC)NC(=O)c1ccc(N2CCN(C(C(=O)OC)c3ccccc3)CC2)c(F)c1 (centres unmarked) [Example 115, {4-[4-(1-Ethyl-propylcarbamoyl)-2-fluoro-phenyl]-piperazin-1-yl}-phenyl-acetic acid methyl ester]	5.49
CCC(CC)NC(=O)c1ccc(N2CCN(C(C(=O)OC)c3ccccc3)CC2)cc1 (centres unmarked) [Example 116, {4-[4-(1-Ethyl-propylcarbamoyl)-phenyl]-piperazin-1-yl}-phenyl-acetic acid methyl ester]	5.00
CCNC(=O)C(c1ccccc1)C1CCN(c2ccc(C(=O)NC(CC)CC)cc2F)CC1 (centres unmarked) [Example 117, 4-[4-(Ethylcarbamoyl-phenyl-methyl)-piperidin-1-yl]-N-(1-ethyl-propyl)-3-fluoro-benzamide]	5.00
CC(=O)N(c1ccccc1)c1ccc(N2CCN(C(C(=O)Nc3ccc4c(c3)CCC4)c3ccccc3)CC2)cc1 (centres unmarked) [Example 118, 2-{4-[4-(Acetyl-phenyl-amino)-phenyl]-piperazin-1-yl}-N-indan-5-yl-2-phenyl-acetamide]	5.47
CCC(C)C(=O)Nc1ccc(N2CCC(C(C(=O)OC)c3ccccc3)CC2)cc1 (centres unmarked) [Example 120, {1-[4-(2-Methyl-butyrylamino)-phenyl]-piperidin-4-yl}-phenyl-acetic acid methyl ester]	5.62
CCN(CC)C(=O)C(c1ccccc1)N1CCN(c2ccc(NC(=O)[C@H]3CCOC3)cc2C#N)CC1 (stereo partly drawn) [Example 122, (S)-Tetrahydro-furan-3-carboxylic acid {3-cyano-4-[4-(diethylcarbamoyl-phenyl-methyl)-piperazin-1-yl]-phenyl}-amide]	8.10
CCN(CC)C(=O)C(c1ccccc1)N1CCN(c2ccc(NC(=O)[C@@H]3CCOC3)cc2C#N)CC1 (stereo partly drawn) [Example 123, (R)-Tetrahydro-furan-3-carboxylic acid {3-cyano-4-[4-(diethylcarbamoyl-phenyl-methyl)-piperazin-1-yl]-phenyl}-amide]	7.77
CCC(CC)C(=O)Nc1ccc(N2CCN(C(C(=O)N(CC)CC)c3cc(Br)ccc3F)CC2)c(F)c1 (centres unmarked) [Example 124, N-(4-{4-[(5-Bromo-2-fluoro-phenyl)-diethylcarbamoyl-methyl]-piperazin-1-yl}-3-fluoro-phenyl)-2-ethyl-butyramide]	7.82
CCN(CC)C(=O)C(c1ccccc1)N1CCN(c2ccc(NC(=O)C3(c4ccccc4)CCCC3)cc2F)CC1 (centres unmarked) [Example 125, 1-Phenyl-cyclopentanecarboxylic acid {4-[4-(diethylcarbamoyl-phenyl-methyl)-piperazin-1-yl]-3-fluoro-phenyl}-amide]	7.70
CCN(CC)C(=O)C(c1ccccc1)C1CCN(c2ccc(NC(=O)[C@H]3CCOC3)cc2F)CC1 (stereo partly drawn) [Example 126, (S)-Tetrahydro-furan-3-carboxylic acid {4-[4-(diethylcarbamoyl-phenyl-methyl)-piperidin-1-yl]-3-fluoro-phenyl}-amide]	7.60
CCOC(=O)C(c1ccccc1)N1CCN(c2ccc(NC(=O)C(CC)CC)cc2F)CC1 (centres unmarked) [Example 127, {4-[4-(2-Ethyl-butyrylamino)-2-fluoro-phenyl]-piperazin-1-yl}-phenyl-acetic acid ethyl ester]	7.70
